# Like-named read-outs stand apart in the source and are kept apart here.
# Test system: respiratory epithelial cells
substance,measurement,setting,value
"IL-13: human IL-13 (Peprotech, Inc.) added to the medium at 50 ng/mL to stimulate respiratory epithelial cells","pendrin gene expression level, factor of increase in response to IL-13 stimulation","AI method, day 3 and day 7, both Lots 1 and 2",ten or more
same,AKR1C1 (32805_at) expression change upon IL-13 stimulation,"HG-U95A, lot 1, Day 3, AI",−2.7
same,ALDH3B2 (37956_at) expression change upon IL-13 stimulation,"HG-U95A, lot 1, Day 3, AI",−7.4
same,AP1G1 (35275_at) expression change upon IL-13 stimulation,"HG-U95A, lot 1, Day 3, AI",−3.6
same,CA12 (36454_at) expression change upon IL-13 stimulation,"HG-U95A, lot 1, Day 3, AI",−4
same,CHL1 (34193_at) expression change upon IL-13 stimulation,"HG-U95A, lot 1, Day 3, AI",−2.5
same,CMAH (39317_at) expression change upon IL-13 stimulation,"HG-U95A, lot 1, Day 3, AI",−2.2
same,E48 (36284_at) expression change upon IL-13 stimulation,"HG-U95A, lot 1, Day 3, AI",−10.3
same,EPHX1 (38790_at) expression change upon IL-13 stimulation,"HG-U95A, lot 1, Day 3, AI",−3
same,FMO2.3 (34935_at) expression change upon IL-13 stimulation,"HG-U95A, lot 1, Day 3, AI",−2.2
same,GLUL (40522_at) expression change upon IL-13 stimulation,"HG-U95A, lot 1, Day 3, AI",−3.8
same,GSTA4 (40508_at) expression change upon IL-13 stimulation,"HG-U95A, lot 1, Day 3, AI",−8
same,"HGNC, keratinocyte transglutaminase gene (35947_at) expression change upon IL-13 stimulation","HG-U95A, lot 1, Day 3, AI",−2
same,KIAA0843 (39597_at) expression change upon IL-13 stimulation,"HG-U95A, lot 1, Day 3, AI",−2.2
same,LGALS1 (33412_at) expression change upon IL-13 stimulation,"HG-U95A, lot 1, Day 3, AI",−2
same,PYGL (37215_at) expression change upon IL-13 stimulation,"HG-U95A, lot 1, Day 3, AI",−2.2
same,SCYD1 (823_at) expression change upon IL-13 stimulation,"HG-U95A, lot 1, Day 3, AI",−2.2
same,SDC1 (38127_at) expression change upon IL-13 stimulation,"HG-U95A, lot 1, Day 3, AI",−2.2
same,TGFBI (1385_at) expression change upon IL-13 stimulation,"HG-U95A, lot 1, Day 3, AI",−3.8
same,ADH1A (34637_f_at) expression change upon IL-13 stimulation,"HG-U95A, lot 1, Day 3, IMM",−3
same,AP1G1 (35275_at) expression change upon IL-13 stimulation,"HG-U95A, lot 1, Day 3, IMM",−2.8
same,CA12 (36454_at) expression change upon IL-13 stimulation,"HG-U95A, lot 1, Day 3, IMM",−3.5
same,CLDN10 (39579_at) expression change upon IL-13 stimulation,"HG-U95A, lot 1, Day 3, IMM",−2.3
same,GLUL (40522_at) expression change upon IL-13 stimulation,"HG-U95A, lot 1, Day 3, IMM",−2.9
same,GPX3 (770_at) expression change upon IL-13 stimulation,"HG-U95A, lot 1, Day 3, IMM",−3.2
same,KIAA0843 (39597_at) expression change upon IL-13 stimulation,"HG-U95A, lot 1, Day 3, IMM",−2.3
same,TGFBI (1385_at) expression change upon IL-13 stimulation,"HG-U95A, lot 1, Day 3, IMM",−2.2
same,ADH1A (34637_f_at) expression change upon IL-13 stimulation,"HG-U95A, lot 1, Day 7, AI",−6.1
same,ADH1C (36247_f_at) expression change upon IL-13 stimulation,"HG-U95A, lot 1, Day 7, AI",−4.1
same,AKR1C1 (32805_at) expression change upon IL-13 stimulation,"HG-U95A, lot 1, Day 7, AI",−3.2
same,ALDH3B2 (37956_at) expression change upon IL-13 stimulation,"HG-U95A, lot 1, Day 7, AI",−6.8
same,AP1G1 (35275_at) expression change upon IL-13 stimulation,"HG-U95A, lot 1, Day 7, AI",−3.9
same,ATP10B (37415_at) expression change upon IL-13 stimulation,"HG-U95A, lot 1, Day 7, AI",−3.2
same,BLMH (37700_at) expression change upon IL-13 stimulation,"HG-U95A, lot 1, Day 7, AI",−2.1
same,CA12 (36454_at) expression change upon IL-13 stimulation,"HG-U95A, lot 1, Day 7, AI",−6.3
same,CLDN10 (39579_at) expression change upon IL-13 stimulation,"HG-U95A, lot 1, Day 7, AI",−4.6
same,CMAH (39317_at) expression change upon IL-13 stimulation,"HG-U95A, lot 1, Day 7, AI",−4.4
same,CP (39008_at) expression change upon IL-13 stimulation,"HG-U95A, lot 1, Day 7, AI",−3.6
same,CRYM (38285_at) expression change upon IL-13 stimulation,"HG-U95A, lot 1, Day 7, AI",−4.2
same,CSPG2 (38112_g_at) expression change upon IL-13 stimulation,"HG-U95A, lot 1, Day 7, AI",−2.1
same,DHCR24 (36658_at) expression change upon IL-13 stimulation,"HG-U95A, lot 1, Day 7, AI",−2.3
same,DSG3 (33693_at) expression change upon IL-13 stimulation,"HG-U95A, lot 1, Day 7, AI",−3.6
same,E48 (36284_at) expression change upon IL-13 stimulation,"HG-U95A, lot 1, Day 7, AI",−7.2
same,EPHX1 (38790_at) expression change upon IL-13 stimulation,"HG-U95A, lot 1, Day 7, AI",−3
same,FACL2 (40082_at) expression change upon IL-13 stimulation,"HG-U95A, lot 1, Day 7, AI",−2.7
same,FMO3 (40665_at) expression change upon IL-13 stimulation,"HG-U95A, lot 1, Day 7, AI",−2.1
same,GLUL (40522_at) expression change upon IL-13 stimulation,"HG-U95A, lot 1, Day 7, AI",−3
same,GPX3 (770_at) expression change upon IL-13 stimulation,"HG-U95A, lot 1, Day 7, AI",−6.5
same,GSTA4 (40508_at) expression change upon IL-13 stimulation,"HG-U95A, lot 1, Day 7, AI",−3.8
same,"HGNC, keratinocyte transglutaminase gene (35947_at) expression change upon IL-13 stimulation","HG-U95A, lot 1, Day 7, AI",−3.2
same,KIAA0843 (39597_at) expression change upon IL-13 stimulation,"HG-U95A, lot 1, Day 7, AI",−2.6
same,KIAA0878 (32215_1_at) expression change upon IL-13 stimulation,"HG-U95A, lot 1, Day 7, AI",−3.4
same,KIAA1055 (39400_at) expression change upon IL-13 stimulation,"HG-U95A, lot 1, Day 7, AI",−5.3
same,LCE (40943_at) expression change upon IL-13 stimulation,"HG-U95A, lot 1, Day 7, AI",−2
same,LGALS1 (33412_at) expression change upon IL-13 stimulation,"HG-U95A, lot 1, Day 7, AI",−6.8
same,PYGL (37215_at) expression change upon IL-13 stimulation,"HG-U95A, lot 1, Day 7, AI",−3.2
same,SCYD1 (823_at) expression change upon IL-13 stimulation,"HG-U95A, lot 1, Day 7, AI",−8.5
same,TGFBI (1385_at) expression change upon IL-13 stimulation,"HG-U95A, lot 1, Day 7, AI",−5.3
same,TNFAIP2 (38631_at) expression change upon IL-13 stimulation,"HG-U95A, lot 1, Day 7, AI",−4.4
same,AKR1C1 (32805_at) expression change upon IL-13 stimulation,"HG-U95A, lot 1, Day 7, IMM",−3.1
same,AP1G1 (35275_at) expression change upon IL-13 stimulation,"HG-U95A, lot 1, Day 7, IMM",−3.7
same,CA12 (36454_at) expression change upon IL-13 stimulation,"HG-U95A, lot 1, Day 7, IMM",−4
same,CHL1 (34193_at) expression change upon IL-13 stimulation,"HG-U95A, lot 1, Day 7, IMM",2.1
same,CP (39008_at) expression change upon IL-13 stimulation,"HG-U95A, lot 1, Day 7, IMM",−2.6
same,FMO2.3 (34935_at) expression change upon IL-13 stimulation,"HG-U95A, lot 1, Day 7, IMM",−2.4
same,GPX3 (770_at) expression change upon IL-13 stimulation,"HG-U95A, lot 1, Day 7, IMM",−6
same,"HGNC, keratinocyte transglutaminase gene (35947_at) expression change upon IL-13 stimulation","HG-U95A, lot 1, Day 7, IMM",−3.7
same,KIAA0878 (32215_1_at) expression change upon IL-13 stimulation,"HG-U95A, lot 1, Day 7, IMM",−2.3
same,PYGL (37215_at) expression change upon IL-13 stimulation,"HG-U95A, lot 1, Day 7, IMM",−2.7
same,TGFBI (1385_at) expression change upon IL-13 stimulation,"HG-U95A, lot 1, Day 7, IMM",−3
same,ADH1C (36247_f_at) expression change upon IL-13 stimulation,"HG-U95A, lot 2, Day 3, AI",−6.1
same,AKR1C1 (32805_at) expression change upon IL-13 stimulation,"HG-U95A, lot 2, Day 3, AI",−2.4
same,ALDH3B2 (37956_at) expression change upon IL-13 stimulation,"HG-U95A, lot 2, Day 3, AI",−6.9
same,AP1G1 (35275_at) expression change upon IL-13 stimulation,"HG-U95A, lot 2, Day 3, AI",−2.8
same,CA12 (36454_at) expression change upon IL-13 stimulation,"HG-U95A, lot 2, Day 3, AI",−6.5
same,CHL1 (34193_at) expression change upon IL-13 stimulation,"HG-U95A, lot 2, Day 3, AI",−4.3
same,CLDN10 (39579_at) expression change upon IL-13 stimulation,"HG-U95A, lot 2, Day 3, AI",−5.4
same,CMAH (39317_at) expression change upon IL-13 stimulation,"HG-U95A, lot 2, Day 3, AI",−7.4
same,CP (39008_at) expression change upon IL-13 stimulation,"HG-U95A, lot 2, Day 3, AI",−3.9
same,DHCR24 (36658_at) expression change upon IL-13 stimulation,"HG-U95A, lot 2, Day 3, AI",−2.1
same,E48 (36284_at) expression change upon IL-13 stimulation,"HG-U95A, lot 2, Day 3, AI",−3.8
same,EPHX1 (38790_at) expression change upon IL-13 stimulation,"HG-U95A, lot 2, Day 3, AI",−3
same,FMO2.3 (34935_at) expression change upon IL-13 stimulation,"HG-U95A, lot 2, Day 3, AI",−3.7
same,FMO3 (40665_at) expression change upon IL-13 stimulation,"HG-U95A, lot 2, Day 3, AI",−2.3
same,GLUL (40522_at) expression change upon IL-13 stimulation,"HG-U95A, lot 2, Day 3, AI",−3.5
same,GPX3 (770_at) expression change upon IL-13 stimulation,"HG-U95A, lot 2, Day 3, AI",−12.2
same,GSTA4 (40508_at) expression change upon IL-13 stimulation,"HG-U95A, lot 2, Day 3, AI",−2.8
same,"HGNC, keratinocyte transglutaminase gene (35947_at) expression change upon IL-13 stimulation","HG-U95A, lot 2, Day 3, AI",−2.7
same,KIAA0843 (39597_at) expression change upon IL-13 stimulation,"HG-U95A, lot 2, Day 3, AI",−2.1
same,KIAA0878 (32215_1_at) expression change upon IL-13 stimulation,"HG-U95A, lot 2, Day 3, AI",−2.4
same,LGALS1 (33412_at) expression change upon IL-13 stimulation,"HG-U95A, lot 2, Day 3, AI",−2.6
same,PYGL (37215_at) expression change upon IL-13 stimulation,"HG-U95A, lot 2, Day 3, AI",−2.2
same,SCYD1 (823_at) expression change upon IL-13 stimulation,"HG-U95A, lot 2, Day 3, AI",−2.1
same,TGFBI (1385_at) expression change upon IL-13 stimulation,"HG-U95A, lot 2, Day 3, AI",−3.1
same,TNFAIP2 (38631_at) expression change upon IL-13 stimulation,"HG-U95A, lot 2, Day 3, AI",−2.4
same,ADH1A (34637_f_at) expression change upon IL-13 stimulation,"HG-U95A, lot 2, Day 7, AI",−20.5
same,ADH1C (36247_f_at) expression change upon IL-13 stimulation,"HG-U95A, lot 2, Day 7, AI",−14.2
same,ALDH3B2 (37956_at) expression change upon IL-13 stimulation,"HG-U95A, lot 2, Day 7, AI",−27.6
same,AP1G1 (35275_at) expression change upon IL-13 stimulation,"HG-U95A, lot 2, Day 7, AI",−2.6
same,ATP10B (37415_at) expression change upon IL-13 stimulation,"HG-U95A, lot 2, Day 7, AI",−3
same,BLMH (37700_at) expression change upon IL-13 stimulation,"HG-U95A, lot 2, Day 7, AI",−2.5
same,CA12 (36454_at) expression change upon IL-13 stimulation,"HG-U95A, lot 2, Day 7, AI",−3
same,CHL1 (34193_at) expression change upon IL-13 stimulation,"HG-U95A, lot 2, Day 7, AI",−7.3
same,CLDN10 (39579_at) expression change upon IL-13 stimulation,"HG-U95A, lot 2, Day 7, AI",−5.4
same,CMAH (39317_at) expression change upon IL-13 stimulation,"HG-U95A, lot 2, Day 7, AI",−14.4
same,CP (39008_at) expression change upon IL-13 stimulation,"HG-U95A, lot 2, Day 7, AI",−6.2
